The source of these data is patent US5612350A, “Macrocyclic immunomodulators with novel cyclohexyl ring replacements” (Abbott Laboratories, priority 1995, dated 1997).

The structures appear in SMILES notation.

One assay concerns human mixed lymphocyte reaction (MLR). Nature of the assay: human mixed lymphocyte reaction (MLR) assay, immunosuppressant activity. To be noted: Table 1. The assay is classed as cell-based. The method, then:
In Vitro Assay of Biological Activity
The immunosuppressant activity of the compounds of the present invention was determined using the human mixed lymphocyte reaction (MLR) assay described by. T. Kinoet al. in Transplantation Proceedings, XIX(5):36-39, Suppl. 6 (1987).
The compound `CC[C@@H]1/C=C(\C)C[C@H](C)C[C@H](OC)[C@H]2O[C@@](O)(C(=O)C(=O)N3CCCC[C@H]3C(=O)O[C@H](/C(C)=C/[C@@H](CCO)CCC(=O)NCc3ccccc3)[C@H](C)[C@@H](O)CC1=O)[C@H](C)C[C@@H]2OC` [Example 7] showed an IC50 of 23 nM.

The compound `CC[C@@H]1/C=C(\C)C[C@H](C)C[C@H](OC)[C@H]2O[C@@](O)(C(=O)C(=O)N3CCCC[C@H]3C(=O)O[C@H](/C(C)=C/[C@@H](CCO)CCC(=O)NCCO)[C@H](C)[C@@H](O)CC1=O)[C@H](C)C[C@@H]2OC` [Example 9] registered an IC50 of 65 nM. The same measure, in the same setting: under `CC[C@@H]1/C=C(\C)C[C@H](C)C[C@H](OC)[C@H]2O[C@@](O)(C(=O)C(=O)N3CCCC[C@H]3C(=O)O[C@H](/C(C)=C/[C@H]3CCOC(=O)CC3)[C@H](C)[C@@H](O)CC1=O)[C@H](C)C[C@@H]2OC` [Example 11] stands 1.1 nM; under `CCCNC(=O)CC[C@@H](/C=C(\C)[C@H]1OC(=O)[C@@H]2CCCCN2C(=O)C(=O)[C@]2(O)O[C@H]([C@@H](OC)C[C@@H](C)C/C(C)=C/[C@@H](CC)C(=O)C[C@H](O)[C@H]1C)[C@@H](OC)C[C@H]2C)CCO` [Example 13], 388 nM. Turning to `CC[C@@H]1/C=C(\C)C[C@H](C)C[C@H](OC)[C@H]2O[C@@](O)(C(=O)C(=O)N3CCCC[C@H]3C(=O)O[C@H](/C(C)=C/[C@@H]3CCNC(=O)OCC3)[C@H](C)[C@@H](O)CC1=O)[C@H](C)C[C@@H]2OC` [Example 37], the IC50 worked out at 0.57 nM. On the same count and under the same terms, then `CC[C@@H]1/C=C(\C)C[C@H](C)C[C@H](OC)[C@H]2O[C@@](O)(C(=O)C(=O)N3CCCC[C@H]3C(=O)O[C@H](/C(C)=C/[C@@H]3CCC(=O)N4CCSC4C3)[C@H](C)[C@@H](O)CC1=O)[C@H](C)C[C@@H]2OC` (some centres unmarked) [Example 39], with 37 nM. Same read-out and setting: then `CC[C@@H]1/C=C(\C)C[C@H](C)C[C@H](OC)[C@H]2O[C@@](O)(C(=O)C(=O)N3CCCC[C@H]3C(=O)O[C@H](/C(C)=C/C3CCN(C(=O)N4CCOCC4)CC3)[C@H](C)[C@@H](O)CC1=O)[C@H](C)C[C@@H]2OC` [Example 56], with 2.6 nM.

The assay is the same for the next values; noted with them: Table 1, at 1 × 10^-6 (M), read-out: 25% at 1 × 10^-6 (in the IC50 (M) column).
Turning to `CC[C@@H]1/C=C(\C)C[C@H](C)C[C@H](OC)[C@H]2O[C@@](O)(C(=O)C(=O)N3CCCC[C@H]3C(=O)O[C@H](/C(C)=C/[C@@H](CCO)CCC(=O)N3CCOCC3)[C@H](C)[C@@H](O)CC1=O)[C@H](C)C[C@@H]2OC` [Example 15], the inhibition at 1 µM was 25%.

As usually defined, the IC50 is the midpoint of a concentration-inhibition curve. Lower therefore signals greater potency.
